What all share (format): cell-based, human
One assay concerns MOLT-4. In words: Gene expression analysis using GeneChip in three kinds of cancers. The following applies: MOLT-4, 8 μM for 12 hours. As to the method: (§1) Gene expression changes in three kinds of cancers of HCT116-C9 (human colon cancer cell strain), MDA-MB-435 (human breast cancer cell strain) and MOLT-4 (human T lymphoblastic leukemia cell strain) caused by E7070 (treated with 8 μM for 12 hours) were examined by using GeneChip in the same manner as in Example 2. A list of the genes of which expression was enhanced 1.8 times or more in common in the three kinds of cancers is shown in Table 3. Further, a list of the genes of which expression was inhibited 1.8 times or more in common in the three kinds of cancers is shown in Table 4. Since the genes of which expression varies (enhanced or reduced) in common in these strains of the three kinds of cancers established from cancer patients with totally different genetic backgrounds are very likely to be more closely associated with the E7070 antitumor action mechanism common to the tumor cells, it is considered that they can be used as valid markers when susceptibility of a tumor cell to E7070 and its related compounds is tested.

For the next assay, the system named is MDA-MB-435. Described as above. The settings on record: MDA-MB-435, 8 μM for 12 hours. The protocol:
as §1

For a further assay, the system named is LX-1. Kind of assay: Gene expression analysis by quantitative PCR. The following applies: susceptible strain LX-1, 8 μM, 0-12 hours, FIG. 3. As to the method:
(§2) Similarly, E7070 was added to the media of an E7070-susceptible strain LX-1 and an E7070-resistant strain LX-1-E2 at a concentration of 8 μM and the cells were cultured. Cells were recovered after 0, 3, 6 and 12 hours. Total RNA was extracted from these cells and subjected to the subsequent analyses. LX-1 (Cancer Chemotherapy Center, Japan Foundation for Cancer Research, Tokyo, Japan) was a cell strain derived from human parvicellular lung cancer, and LX-1-E2 is an E7070-resistant substrain obtained by culturing this LX-1 in the presence of E7070 with gradually increasing the E7070 concentration. In order to confirm that variations in gene expression obtained in Example 2 reflected the susceptibility of a tumor cell to E7070, changes of gene expression in E7070-susceptible cells and E7070-resistant cells were examined by quantitative PCR using RNA shown in Example 1, SYBR Green and ABI Prism 7700 Sequence Detection System (Perkin-Elmer Applied Biosystems). […] The mRNA level in each specimen was quantified by measuring fluorescence intensity. In comparison of two or more specimens, quantitative values were corrected based on the mRNA level of GAPDH in each specimen. The relationships between the drug treatment time and each mRNA level are shown in FIGS. 2 to 5, where the quantified value at 0 hour after the drug treatment was used as a control (100%).

The next assay deals with LX-1-E2. In words: Gene expression analysis by quantitative PCR. The settings on record: resistant strain LX-1-E2, 8 μM, 0-12 hours, FIG. 5. The protocol: as §2

These results are taken from patent US7445892B2, “Method of testing anticancer agent-sensitivity of tumor cells” (Eisai Co., Ltd., priority 2000, dated 2008).

The structures appear in SMILES notation. A value given as a limit tells only on which side of the number the result lay.

Regarding `NS(=O)(=O)c1ccc(S(=O)(=O)Nc2cccc3c(Cl)c[nH]c23)cc1` [E7070, N-(3-chloro-7-indolyl)-1,4-benzenedisulfonamide], the “enhancement of expression of the genes listed in Table 3” value in the assay on MOLT-4 and in the assay on MDA-MB-435 was at least 1.8 times in each case. For the same compound, the “inhibition of expression of the genes listed in Table 4” value with MOLT-4 and in the assay on MDA-MB-435 was at least 1.8 times throughout. The “mRNA level variation of S80343, U07919, U11791, M95809, U18291, U63743, M61764 (corrected by GAPDH)” value in the assay with LX-1 was “all the genes except for S80343 showed expression variations”; in the assay with LX-1-E2 it was “U11791 showed an expression change and M95809 and U18291 showed a slight expression change”.
